This assay relates to MV-4-11 cells. Nature of the assay: Gene expression microarray analysis (Affymetrix PrimeView) and GSEA. It is filed as cell-based, human. More on the design: RFU PODN (11730768_x_at) / Fold change /veh PODN (11730768_x_at) / RFU LINC00158 (11744669_a_at) / Fold change /veh LINC00158 (11744669_a_at) / RFU DUSP10 (11751237_a_at) / Fold change /veh DUSP10 (11751237_a_at) / RFU ID3 (11757404_x_at) / Fold change /veh ID3 (11757404_x_at) / RFU PLEKHG5 (11737974_s_at) / Fold change /veh PLEKHG5 (11737974_s_at) / RFU LRRC4B (11730491_at) / Fold change /veh LRRC4B (11730491_at) / RFU GIMAP4 (11747438_a_at) / Fold change /veh GIMAP4 (11747438_a_at) / RFU KRT8 (11758183_x_at) / Fold change /veh KRT8 (11758183_x_at) / RFU CNN1 (11734310_a_at) / Fold change /veh CNN1 (11734310_a_at) / RFU VPS37D (11726825_at) / Fold change /veh VPS37D (11726825_at) / RFU C10orf10 (11716522_x_at) / Fold change /veh C10orf10 (11716522_x_at) / RFU KIR2DL2 /// KIR2DL4 /// KIR2DL5A /// KIR2DL5B /// KIR2DS1 /// KIR2DS2 /// KIR2DS3 /// KIR2DS4 /// KIR3DL3 /// KIR3DL3 /// KIR3DS1 (11738374_at) / Fold change /veh KIR2DL2 /// KIR2DL4 /// KIR2DL5A /// KIR2DL5B /// KIR2DS1 /// KIR2DS2 /// KIR2DS3 /// KIR2DS4 /// KIR3DL3 /// KIR3DL3 /// KIR3DS1 (11738374_at) / RFU C1QL1 (11718748_at) / Fold change /veh C1QL1 (11718748_at) / RFU TMPRSS4 (11747572_a_at) / Fold change /veh TMPRSS4 (11747572_a_at) / RFU HAMP (11756126_x_at) / Fold change /veh HAMP (11756126_x_at) / RFU RNFT2 (11725882_a_at) / Fold change /veh RNFT2 (11725882_a_at) / RFU NR4A2 (11747474_a_at) / Fold change /veh NR4A2 (11747474_a_at) / RFU ABCC12 (11746883_a_at) / Fold change /veh ABCC12 (11746883_a_at) / RFU TMEM136 (11760407_x_at) / Fold change /veh TMEM136 (11760407_x_at) / RFU CLDN22 /// WWC2 (11732394_at) / Fold change /veh CLDN22 /// WWC2 (11732394_at) / RFU HLA-DPB1 (11760878_x_at) / Fold change /veh HLA-DPB1 (11760878_x_at) / RFU SPINT1 (11716480_a_at) / Fold change /veh SPINT1 (11716480_a_at) / RFU GAP43 (11754022_s_at) / Fold change /veh GAP43 (11754022_s_at) / RFU A4GNT (11735810_at) / Fold change /veh A4GNT (11735810_at) / RFU PRB3 (11715151_x_at) / Fold change /veh PRB3 (11715151_x_at) / RFU TUBB4B (11761932_at) / Fold change /veh TUBB4B (11761932_at) / RFU CAPN14 (11732068_a_at) / Fold change /veh CAPN14 (11732068_a_at) / RFU TMCC2 (11721928_a_at) / Fold change /veh TMCC2 (11721928_a_at) / RFU IRGQ (11745062_a_at) / Fold change /veh IRGQ (11745062_a_at) / RFU FAM174B (11720279_a_at) / Fold change /veh FAM174B (11720279_a_at) / RFU TMPRSS4 (11748680_a_at) / Fold change /veh TMPRSS4 (11748680_a_at) / RFU FAM212B (11763350_a_at) / Fold change /veh FAM212B (11763350_a_at) / RFU PLEKHG5 (11743358_a_at) / Fold change /veh PLEKHG5 (11743358_a_at) / RFU ZSCAN30 (11745921_a_at) / Fold change /veh ZSCAN30 (11745921_a_at) / RFU CMKLR1 (11741424_a_at) / Fold change /veh CMKLR1 (11741424_a_at) / RFU LOC101060620 /// MAPK8IP1 (11723275_at) / Fold change /veh LOC101060620 /// MAPK8IP1 (11723275_at) / RFU SPTSSB (11747773_x_at) / Fold change /veh SPTSSB (11747773_x_at) / RFU PRSS12 (11739890_at) / Fold change /veh PRSS12 (11739890_at) / RFU BIN1 (11741810_x_at) / Fold change /veh BIN1 (11741810_x_at) / RFU WNT11 (11732464_a_at) / Fold change /veh WNT11 (11732464_a_at) / RFU C10orf10 (11716521_a_at) / Fold change /veh C10orf10 (11716521_a_at) / RFU C5orf56 (11738089_at) / Fold change /veh C5orf56 (11738089_at) / RFU CYB561 (11721691_x_at) / Fold change /veh CYB561 (11721691_x_at) / RFU ANKRD19P (11752326_a_at) / Fold change /veh ANKRD19P (11752326_a_at) / RFU OR2T12 /// OR2T33 /// OR2T8 (11738714_s_at) / Fold change /veh OR2T12 /// OR2T33 /// OR2T8 (11738714_s_at) / RFU VCAN (11748164_a_at) / Fold change /veh VCAN (11748164_a_at) / RFU JSRP1 (11732532_at) / Fold change /veh JSRP1 (11732532_at) / RFU KRTAP10-11 (11738290_x_at) / Fold change /veh KRTAP10-11 (11738290_x_at) / RFU MYO3A (11730013_a_at) / Fold change /veh MYO3A (11730013_a_at) / RFU EBF3 (11725865_a_at) / Fold change /veh EBF3 (11725865_a_at) / RFU CAMK2N1 (11719241_x_at) / Fold change /veh CAMK2N1 (11719241_x_at) / RFU C5orf56 (11738088_a_at) / Fold change /veh C5orf56 (11738088_a_at) / RFU OLFML3 (11715873_a_at) / Fold change /veh OLFML3 (11715873_a_at) / RFU LOC100653217 /// NTM (11731650_a_at) / Fold change /veh LOC100653217 /// NTM (11731650_a_at) / RFU MAPK11 (11762145_a_at) / Fold change /veh MAPK11 (11762145_a_at) / RFU FIZ1 (11724087_x_at) / Fold change /veh FIZ1 (11724087_x_at) / RFU OASL (11726364_x_at) / Fold change /veh OASL (11726364_x_at) / RFU SOX15 (11748057_x_at) / Fold change /veh SOX15 (11748057_x_at) / RFU CD79A (11719716_a_at) / Fold change /veh CD79A (11719716_a_at) / RFU HIST1H1D (11736915_at) / Fold change /veh HIST1H1D (11736915_at) / RFU CASKIN2 (11723855_a_at) / Fold change /veh CASKIN2 (11723855_a_at) / RFU LOC730098 (11760151_x_at) / Fold change /veh LOC730098 (11760151_x_at) / RFU OR4N2 (11742367_at) / Fold change /veh OR4N2 (11742367_at) / RFU PRRT2 (11749266_a_at) / Fold change /veh PRRT2 (11749266_a_at) / RFU SNX32 (11753110_a_at) / Fold change /veh SNX32 (11753110_a_at) / RFU CDHR5 (11726645_a_at) / Fold change /veh CDHR5 (11726645_a_at) / RFU RCAN1 (11760418_a_at) / Fold change /veh RCAN1 (11760418_a_at) / RFU FAM167A (11723789_a_at) / Fold change /veh FAM167A (11723789_a_at) / RFU FAM26E (11764081_at) / Fold change /veh FAM26E (11764081_at) / RFU ISYNA1 (11749810_s_at) / Fold change /veh ISYNA1 (11749810_s_at) / RFU ACY1 (11761880_at) / Fold change /veh ACY1 (11761880_at) / RFU 11764098_at / Fold change /veh 11764098_at / RFU SAMD14 (11745864_x_at) / Fold change /veh SAMD14 (11745864_x_at) / RFU NPB (11741838_a_at) / Fold change /veh NPB (11741838_a_at) / RFU TMPRSS6 (11731388_a_at) / Fold change /veh TMPRSS6 (11731388_a_at) / RFU KRTAP10-2 (11738614_at) / Fold change /veh KRTAP10-2 (11738614_at) / RFU ARHGAP8 /// PRR5-ARHGAP8 (11727945_x_at) / Fold change /veh ARHGAP8 /// PRR5-ARHGAP8 (11727945_x_at) / RFU KRTAP5-7 /// NADSYN1 (11734609_at) / Fold change /veh KRTAP5-7 /// NADSYN1 (11734609_at) / RFU RASL12 (11751679_a_at) / Fold change /veh RASL12 (11751679_a_at) / RFU CDKN2B (11736163_a_at) / Fold change /veh CDKN2B (11736163_a_at) / RFU PRF1 (11729649_at) / Fold change /veh PRF1 (11729649_at) / RFU, ZNF638 /// ZNF638-IT1 / Fold change vs veh, ZNF638 /// ZNF638-IT1 / RFU, PANK3 / Fold change vs veh, PANK3 / RFU, SH3YL1 / Fold change vs veh, SH3YL1 / RFU, ZEB2 / Fold change vs veh, ZEB2 / RFU, NRIP1 / Fold change vs veh, NRIP1 / RFU, PTTG1IP / Fold change vs veh, PTTG1IP / RFU, CAPN2 / Fold change vs veh, CAPN2 / RFU, MED14 / Fold change vs veh, MED14 / RFU, SNORA58 / Fold change vs veh, SNORA58 / RFU, C1orf63 / Fold change vs veh, C1orf63 / RFU, LRRFIP1 / Fold change vs veh, LRRFIP1 / RFU, NDUFAF7 / Fold change vs veh, NDUFAF7 / RFU, SLC12A2 / Fold change vs veh, SLC12A2 / RFU, IBTK / Fold change vs veh, IBTK / RFU, ESF1 / Fold change vs veh, ESF1 / Fold change vs veh, TMEM50B / RFU, TAOK1 / Fold change vs veh, TAOK1 / RFU, ACBD3 / Fold change vs veh, ACBD3 / RFU, TMA16 / Fold change vs veh, TMA16 / RFU, RWDD3 / Fold change vs veh, RWDD3 / RFU, BCAT1 / Fold change vs veh, BCAT1 / RFU, EDEM3 / Fold change vs veh, EDEM3 / RFU, TMEM33 / Fold change vs veh, TMEM33 / RFU, WDR75 / Fold change vs veh, WDR75 / RFU, AHCTF1 / Fold change vs veh, AHCTF1 / RFU, TFRC / Fold change vs veh, TFRC / RFU, ZDHHC17 / Fold change vs veh, ZDHHC17 / RFU, NOM1 / Fold change vs veh, NOM1 / RFU, ARL8B / Fold change vs veh, ARL8B / RFU, ZBTB11 / Fold change vs veh, ZBTB11 / RFU, TAMM41 / Fold change vs veh, TAMM41 / RFU, KIAA1704 /// LOC100996395 / Fold change vs veh, KIAA1704 /// LOC100996395 / RFU, ING1 / Fold change vs veh, ING1 / RFU, TRMT61B / Fold change vs veh, TRMT61B / RFU, FUBP3 / Fold change vs veh, FUBP3 / RFU, TP53 / Fold change vs veh, TP53 / RFU, TNKS2 / Fold change vs veh, TNKS2 / RFU, ZFP14 / Fold change vs veh, ZFP14 / RFU, ACTR2 / Fold change vs veh, ACTR2 / RFU, PPP3R1 / Fold change vs veh, PPP3R1 / RFU, PIK3R1 / Fold change vs veh, PIK3R1 / RFU, HNRNPA1 / Fold change vs veh, HNRNPA1 / RFU, RNF170 / Fold change vs veh, RNF170 / RFU, ZNF28 / Fold change vs veh, ZNF28 / RFU, RNGTT / Fold change vs veh, RNGTT / RFU, OGT / Fold change vs veh, OGT / RFU, BRD1 / Fold change vs veh, BRD1 / RFU, MARS / Fold change vs veh, MARS / RFU, ZNF655 / Fold change vs veh, ZNF655 / RFU, FAHD1 / Fold change vs veh, FAHD1 / RFU, BDP1 / Fold change vs veh, BDP1 / RFU, LRRCC1 / Fold change vs veh, LRRCC1 / RFU, ARID1A / Fold change vs veh, ARID1A / RFU, ZNF146 / Fold change vs veh, ZNF146 / RFU, ZNF330 / Fold change vs veh, ZNF330 / RFU, GPN3 / Fold change vs veh, GPN3 / RFU, C9orf123 / Fold change vs veh, C9orf123 / RFU, N4BP2L2 / Fold change vs veh, N4BP2L2 / RFU, ARFIP1 / Fold change vs veh, ARFIP1 / RFU, FAM179B / Fold change vs veh, FAM179B / RFU, BCL10 / Fold change vs veh, BCL10 / RFU, UHRF1BP1L / Fold change vs veh, UHRF1BP1L / RFU, BET1 / Fold change vs veh, BET1 / RFU, CNOT2 / Fold change vs veh, CNOT2 / RFU, ZNF268 / Fold change vs veh, ZNF268 / Fold change vs veh, ZNF507 / RFU, DGCR2 / Fold change vs veh, DGCR2 / RFU, WDSUB1 / Fold change vs veh, WDSUB1 / Fold change vs veh, HSP90B1 /// MIR3652 / RFU, ADSS / Fold change vs veh, ADSS / RFU, GK / Fold change vs veh, GK / RFU, ZNF148 / Fold change vs veh, ZNF148 / RFU, TAF9 / Fold change vs veh, TAF9 / RFU, SLC1A5 / Fold change vs veh, SLC1A5 / RFU, SLMO2 / Fold change vs veh, SLMO2 / RFU, ABCC4 / Fold change vs veh, ABCC4 / RFU, LOC101060439 /// RAP1B / Fold change vs veh, LOC101060439 /// RAP1B / RFU, RFX7 / Fold change vs veh, RFX7 / RFU, GTPBP10 / Fold change vs veh, GTPBP10 / RFU, CNEP1R1 / Fold change vs veh, CNEP1R1 / RFU, BIVM-ERCC5 /// ERCC5 / Fold change vs veh, BIVM-ERCC5 /// ERCC5 / RFU, ILF3 / Fold change vs veh, ILF3 / RFU 11762660_at / Fold change /veh 11762660_at / RFU VCAN (11757783_s_at) / Fold change /veh VCAN (11757783_s_at) / RFU DDX43 (11728927_at) / Fold change /veh DDX43 (11728927_at) / RFU KRT8 (11758188_x_at) / Fold change /veh KRT8 (11758188_x_at) / RFU NKD1 (11759106_at) / Fold change /veh NKD1 (11759106_at) / RFU SRD5A1 (11742802_a_at) / Fold change /veh SRD5A1 (11742802_a_at) / RFU TPSAB1 /// TPSB2 (11721975_s_at) / Fold change /veh TPSAB1 /// TPSB2 (11721975_s_at) / RFU GSTM3 (11746129_a_at) / Fold change /veh GSTM3 (11746129_a_at) / RFU IL23R (11737362_x_at) / Fold change /veh IL23R (11737362_x_at) / RFU TMEM51 (11727254_a_at) / Fold change /veh TMEM51 (11727254_a_at) / RFU PIWIL2 (11732686_x_at) / Fold change /veh PIWIL2 (11732686_x_at) / RFU ORM1 (11744905_x_at) / Fold change /veh ORM1 (11744905_x_at) / RFU CCDC152 (11743942_at) / Fold change /veh CCDC152 (11743942_at) / RFU ECM1 (11717891_a_at) / Fold change /veh ECM1 (11717891_a_at) / RFU IL23R (11748794_a_at) / Fold change /veh IL23R (11748794_a_at) / RFU TNFAIP8L3 (11732012_x_at) / Fold change /veh TNFAIP8L3 (11732012_x_at) / RFU MBOAT4 (11741988_at) / Fold change /veh MBOAT4 (11741988_at) / RFU 11764193_at / Fold change /veh 11764193_at / RFU TMEM53 (11763286_at) / Fold change /veh TMEM53 (11763286_at) / RFU MAGEB2 (11727129_at) / Fold change /veh MAGEB2 (11727129_at) / RFU TMEM200A (11744735_a_at) / Fold change /veh TMEM200A (11744735_a_at) / RFU CCDC152 (11751479_a_at) / Fold change /veh CCDC152 (11751479_a_at) / RFU FAM211A (11726209_a_at) / Fold change /veh FAM211A (11726209_a_at) / RFU RGS16 (11746705_a_at) / Fold change /veh RGS16 (11746705_a_at) / RFU VCAN (11755009_s_at) / Fold change /veh VCAN (11755009_s_at) / RFU RHOB (11743442_s_at) / Fold change /veh RHOB (11743442_s_at) / RFU RGS16 (11720943_a_at) / Fold change /veh RGS16 (11720943_a_at) / RFU RGS16 (11720944_at) / Fold change /veh RGS16 (11720944_at) / RFU, VPS4B / Fold change vs veh, VPS4B / RFU, CREB1 / Fold change vs veh, CREB1 / RFU, DNAJC13 / Fold change vs veh, DNAJC13 / RFU, GNAQ / Fold change vs veh, GNAQ / RFU, CDK5R1 / Fold change vs veh, CDK5R1 / RFU, ZRANB3 / Fold change vs veh, ZRANB3 / RFU, CUL4A / Fold change vs veh, CUL4A / RFU, CCNY / Fold change vs veh, CCNY / RFU, UFL1 / Fold change vs veh, UFL1 / RFU, COG3 / Fold change vs veh, COG3 / RFU, DIAPH2 / Fold change vs veh, DIAPH2 / RFU, SKA2 / Fold change vs veh, SKA2 / RFU, AFF3 / Fold change vs veh, AFF3 / RFU, LMF1 / Fold change vs veh, LMF1 / RFU, IPO11 / Fold change vs veh, IPO11 / RFU, DFFB / Fold change vs veh, DFFB / RFU, FOXP1 / Fold change vs veh, FOXP1 / RFU, CARD8 / Fold change vs veh, CARD8 / RFU, STRN3 / Fold change vs veh, STRN3 / RFU, ADK / Fold change vs veh, ADK / RFU, RASSF2 / Fold change vs veh, RASSF2 / RFU, WIPF1 / Fold change vs veh, WIPF1 / RFU, LARP1B / Fold change vs veh, LARP1B / RFU, RASA1 / Fold change vs veh, RASA1 / RFU, RB1 / Fold change vs veh, RB1 / RFU, PPFIA1 / Fold change vs veh, PPFIA1 / RFU, MAT2A / Fold change vs veh, MAT2A / RFU, CCT5 / Fold change vs veh, CCT5 / RFU, WDR92 / Fold change vs veh, WDR92 / RFU, CUX1 / Fold change vs veh, CUX1 / RFU, TTC7A / Fold change vs veh, TTC7A / RFU, TMEM135 / Fold change vs veh, TMEM135 / RFU, DEPTOR / Fold change vs veh, DEPTOR / RFU, CPM / Fold change vs veh, CPM / RFU, DNAJB6 / Fold change vs veh, DNAJB6 / RFU, CACNA2D3 / Fold change vs veh, CACNA2D3 / RFU, DTX4 / Fold change vs veh, DTX4 / RFU, TFCP2 / Fold change vs veh, TFCP2 / RFU, GMCL1 /// GMCL1P1 / Fold change vs veh, GMCL1 /// GMCL1P1 / RFU, AEBP2 / Fold change vs veh, AEBP2 / RFU, SNHG1 /// SNORD22 /// SNORD25 /// SNORD26 /// SNORD27 /// SNORD28 /// SNORD29 /// SNORD31 / Fold change vs veh, SNHG1 /// SNORD22 /// SNORD25 /// SNORD26 /// SNORD27 /// SNORD28 /// SNORD29 /// SNORD31 / Fold change (Aza/veh), C12orf56 (ProbeSet 11735607_a_at) / Fold change (ACY-1035/veh), C12orf56 (ProbeSet 11735607_a_at) / Fold change (Aza/veh), FGFR1OP (ProbeSet 11751329_s_at) / Fold change (ACY-1035/veh), FGFR1OP (ProbeSet 11751329_s_at) / Fold change (Aza/veh), VPS36 (ProbeSet 11739960_a_at) / Fold change (ACY-1035/veh), VPS36 (ProbeSet 11739960_a_at) / RFU SYPL1 (11715823_x_at) / Fold change /veh SYPL1 (11715823_x_at) / RFU IGFBP7 (11715501_s_at) / Fold change /veh IGFBP7 (11715501_s_at) / RFU REEP3 (11722064_at) / Fold change /veh REEP3 (11722064_at) / RFU IGLL1 (11728026_x_at) / Fold change /veh IGLL1 (11728026_x_at): dose or concentration left out as unconfirmed. Conditions: MV-4-11 cells, 48 hours.

With `Nc1ncn([C@@H]2O[C@H](CO)[C@@H](O)[C@H]2O)c(=O)n1` [azacitidine], the “RFU SOX15 (11748057_x_at)” value amounted to 12.99 RFU.

For the origin of these results see PMC5218480 (PLoS ONE, 2017).
